According to US10370360B2, “Small-molecule inhibitors targeting discoidin domain receptor 1 and uses thereof” (priority 2014, dated 2019):
Read-outs that look alike come from different tables or passages of the source.

Key:
human PDA cell lines [1] = experiment: liquid colony forming assay; assay type: cell-based; details: concentration-dependent, 1.5-2 weeks
human PDA cell lines [2] = details: concentration-dependent, 30 hour
orthotopic AsPC-1 tumors = experiment: survival study, orthotopic AsPC-1 xenograft in NOD-SCID mice; assay type: in vivo, mouse
[3] = rats; Gao et al., 2013; cited from earlier work
KPC mice (PDA) = experiment: survival study, KPC genetically engineered mouse model of PDA; assay type: in vivo
DDR1 = DDR1 (Homo sapiens (Human), UniProt Q08345); experiment: LanthaScreen Eu kinase activity assay, DDR1; assay type: biochemical; details: 100 nM ATP
Sequence of DDR1 (Q08345 19-913): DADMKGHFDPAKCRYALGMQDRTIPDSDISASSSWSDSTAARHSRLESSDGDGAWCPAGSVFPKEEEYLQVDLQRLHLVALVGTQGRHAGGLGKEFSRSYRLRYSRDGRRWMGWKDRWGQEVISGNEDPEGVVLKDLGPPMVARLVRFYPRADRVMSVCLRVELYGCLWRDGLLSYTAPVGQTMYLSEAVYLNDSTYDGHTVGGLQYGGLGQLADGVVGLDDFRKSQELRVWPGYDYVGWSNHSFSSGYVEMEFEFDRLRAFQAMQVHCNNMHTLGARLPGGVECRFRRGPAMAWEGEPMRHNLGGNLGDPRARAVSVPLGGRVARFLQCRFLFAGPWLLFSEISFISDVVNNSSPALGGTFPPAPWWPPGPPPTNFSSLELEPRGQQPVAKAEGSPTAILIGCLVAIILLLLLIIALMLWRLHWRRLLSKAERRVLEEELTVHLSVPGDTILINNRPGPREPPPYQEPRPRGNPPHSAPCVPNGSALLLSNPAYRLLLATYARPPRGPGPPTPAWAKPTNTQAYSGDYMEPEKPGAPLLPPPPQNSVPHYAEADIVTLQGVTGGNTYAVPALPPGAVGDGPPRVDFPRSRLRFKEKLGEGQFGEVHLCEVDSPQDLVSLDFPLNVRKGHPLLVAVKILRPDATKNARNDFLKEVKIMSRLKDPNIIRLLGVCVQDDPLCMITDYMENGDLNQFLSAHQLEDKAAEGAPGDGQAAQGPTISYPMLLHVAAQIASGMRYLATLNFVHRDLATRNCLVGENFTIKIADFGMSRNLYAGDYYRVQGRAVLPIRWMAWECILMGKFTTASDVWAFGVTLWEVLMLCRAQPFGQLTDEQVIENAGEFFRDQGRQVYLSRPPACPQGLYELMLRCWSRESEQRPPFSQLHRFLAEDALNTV

c-Kit = c-Kit (Homo sapiens (Human), UniProt P10721); experiment: FRET-based Z'-Lyte kinase assay, c-kit; assay type: biochemical; details: 300 μM ATP
Sequence of c-Kit (P10721 26-976): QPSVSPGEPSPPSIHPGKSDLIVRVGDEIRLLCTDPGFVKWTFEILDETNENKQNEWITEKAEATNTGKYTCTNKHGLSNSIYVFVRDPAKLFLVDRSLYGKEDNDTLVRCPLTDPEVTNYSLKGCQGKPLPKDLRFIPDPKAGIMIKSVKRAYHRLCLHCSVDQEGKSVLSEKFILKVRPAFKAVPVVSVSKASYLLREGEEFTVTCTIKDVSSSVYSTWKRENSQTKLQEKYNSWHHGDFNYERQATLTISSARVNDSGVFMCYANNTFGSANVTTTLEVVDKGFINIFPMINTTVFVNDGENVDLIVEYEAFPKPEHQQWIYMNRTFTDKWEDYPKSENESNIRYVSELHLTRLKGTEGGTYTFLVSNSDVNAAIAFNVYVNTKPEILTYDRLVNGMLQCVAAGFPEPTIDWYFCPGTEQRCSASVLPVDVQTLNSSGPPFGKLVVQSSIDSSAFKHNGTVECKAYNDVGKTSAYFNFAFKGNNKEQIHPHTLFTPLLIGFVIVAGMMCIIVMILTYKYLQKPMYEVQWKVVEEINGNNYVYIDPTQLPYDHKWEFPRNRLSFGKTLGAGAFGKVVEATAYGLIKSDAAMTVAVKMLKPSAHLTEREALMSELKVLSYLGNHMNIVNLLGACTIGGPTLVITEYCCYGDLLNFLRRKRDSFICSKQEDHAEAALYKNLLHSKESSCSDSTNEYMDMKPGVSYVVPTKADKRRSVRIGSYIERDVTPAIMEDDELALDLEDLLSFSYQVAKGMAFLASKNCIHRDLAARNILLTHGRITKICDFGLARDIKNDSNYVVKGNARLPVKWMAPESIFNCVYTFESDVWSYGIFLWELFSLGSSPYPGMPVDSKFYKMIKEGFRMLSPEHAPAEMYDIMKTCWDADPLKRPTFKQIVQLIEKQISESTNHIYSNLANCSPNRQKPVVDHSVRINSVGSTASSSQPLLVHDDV

DDR2 = DDR2 (Homo sapiens (Human), UniProt Q16832); experiment: LanthaScreen Eu kinase activity assay, DDR2; assay type: biochemical; details: 100 nM ATP
Sequence of DDR2 (Q16832 22-855): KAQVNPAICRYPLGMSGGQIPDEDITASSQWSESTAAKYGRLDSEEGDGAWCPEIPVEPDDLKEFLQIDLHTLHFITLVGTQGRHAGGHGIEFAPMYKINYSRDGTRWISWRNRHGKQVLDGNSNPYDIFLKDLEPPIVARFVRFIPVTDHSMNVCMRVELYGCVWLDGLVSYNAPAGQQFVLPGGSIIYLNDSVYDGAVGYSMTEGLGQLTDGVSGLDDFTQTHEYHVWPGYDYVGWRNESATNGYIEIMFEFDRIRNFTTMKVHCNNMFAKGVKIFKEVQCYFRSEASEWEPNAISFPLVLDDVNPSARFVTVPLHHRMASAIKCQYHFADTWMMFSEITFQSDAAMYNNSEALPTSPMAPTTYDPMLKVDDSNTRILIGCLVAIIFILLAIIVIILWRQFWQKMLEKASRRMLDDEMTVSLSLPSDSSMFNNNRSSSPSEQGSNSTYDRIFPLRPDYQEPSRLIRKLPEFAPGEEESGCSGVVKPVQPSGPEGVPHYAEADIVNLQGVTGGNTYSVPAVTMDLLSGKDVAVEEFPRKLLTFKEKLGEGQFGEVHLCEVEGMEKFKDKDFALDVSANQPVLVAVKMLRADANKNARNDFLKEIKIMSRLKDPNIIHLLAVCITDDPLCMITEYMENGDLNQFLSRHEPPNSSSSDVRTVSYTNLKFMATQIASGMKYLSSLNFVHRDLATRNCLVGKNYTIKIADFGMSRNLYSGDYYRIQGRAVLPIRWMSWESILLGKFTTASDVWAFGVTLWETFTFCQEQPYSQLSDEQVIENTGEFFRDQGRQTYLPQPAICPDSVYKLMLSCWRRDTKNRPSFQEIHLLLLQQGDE

Bcr-Abl [4] = experiment: FRET-based Z'-Lyte kinase assay, Abl; assay type: biochemical; details: 10 μM ATP; cells printed in μM
Sequence of Bcr-Abl (P00519 whole entry): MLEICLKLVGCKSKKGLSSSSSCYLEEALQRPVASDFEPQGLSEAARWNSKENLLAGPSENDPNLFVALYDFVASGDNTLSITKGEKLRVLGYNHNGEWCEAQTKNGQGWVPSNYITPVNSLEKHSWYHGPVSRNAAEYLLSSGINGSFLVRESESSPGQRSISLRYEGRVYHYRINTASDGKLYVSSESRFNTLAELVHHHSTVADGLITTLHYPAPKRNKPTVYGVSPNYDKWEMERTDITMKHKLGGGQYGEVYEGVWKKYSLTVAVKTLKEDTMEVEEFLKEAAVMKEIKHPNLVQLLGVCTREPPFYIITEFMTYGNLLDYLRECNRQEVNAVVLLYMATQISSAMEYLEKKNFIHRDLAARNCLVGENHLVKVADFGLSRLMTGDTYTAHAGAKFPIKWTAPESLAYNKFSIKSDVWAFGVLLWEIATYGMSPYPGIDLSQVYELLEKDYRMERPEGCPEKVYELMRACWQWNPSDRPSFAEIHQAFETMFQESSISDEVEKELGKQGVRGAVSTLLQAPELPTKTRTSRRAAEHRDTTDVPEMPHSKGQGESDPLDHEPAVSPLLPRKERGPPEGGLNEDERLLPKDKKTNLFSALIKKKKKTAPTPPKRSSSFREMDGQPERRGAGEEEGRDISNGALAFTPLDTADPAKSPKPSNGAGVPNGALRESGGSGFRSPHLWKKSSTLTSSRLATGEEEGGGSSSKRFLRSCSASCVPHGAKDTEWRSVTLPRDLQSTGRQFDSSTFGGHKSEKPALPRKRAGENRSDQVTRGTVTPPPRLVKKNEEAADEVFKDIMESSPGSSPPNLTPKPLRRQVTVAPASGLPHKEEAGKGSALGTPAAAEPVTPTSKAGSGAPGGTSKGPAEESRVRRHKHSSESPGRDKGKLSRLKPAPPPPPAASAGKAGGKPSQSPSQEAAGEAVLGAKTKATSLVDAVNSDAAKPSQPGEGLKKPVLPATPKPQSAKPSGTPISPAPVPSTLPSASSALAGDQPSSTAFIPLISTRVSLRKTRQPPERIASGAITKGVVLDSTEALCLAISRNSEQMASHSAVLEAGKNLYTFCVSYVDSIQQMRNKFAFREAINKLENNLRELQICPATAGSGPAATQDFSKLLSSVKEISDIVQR

Bcr-Abl [5] = target: Bcr-Abl (Homo sapiens, UniProt P00519); experiment: FRET-based Z'-Lyte kinase assay, Abl; assay type: biochemical; details: 10 μM ATP; cells printed in μM
Sequence of Bcr-Abl (Homo sapiens, UniProt P00519) (P00519 whole entry): as above

PANC-1 cells = experiment: MTS viability assay, PANC-1; assay type: cell-based; details: Homo sapiens
AsPC-1 cells = experiment: MTS viability assay, AsPC-1; assay type: cell-based; details: Homo sapiens

In the case of `CCc1ccc(C(=O)Nc2cc(CN3CCN(C)CC3)cc(C(F)(F)F)c2)cc1C#Cc1cnc2ccnn2c1` [Example 7rh, 3-(2-(Pyrazolo[1,5-a]pyrimidin-6-yl)-ethynyl) 7rh benzamide], the colony formation (human PDA cell lines [1]) is reported as “reduced”, the cell migration (human PDA cell lines [2]) is reported as “reduced” and the “primary tumor growth compared to vehicle” value (orthotopic AsPC-1 tumors; orthotopic AsPC-1, tumor weight vs survival days) is reported as “reduced”. For the same compound, the median overall survival (orthotopic AsPC-1 tumors; orthotopic AsPC-1, therapy from day 27 post tumor cell injection, 7rh 25 mg/kg 3×/week oral) was 57 days, the in vivo half-life [3] was roughly 12 h and the median of survival (KPC mice (PDA); KPC mice enrolled at 4 months of age, 7rh 25 mg/kg 3×/week oral) was 159 days. The “primary tumor growth compared to vehicle” value (KPC mice (PDA); KPC mice, tumor weight vs survival days) was “reduced”.

For `CC(C)c1cc(CN2CCN(C)CC2)cc(NC(=O)c2ccc3c(c2)CN(c2cncnc2)CC3C)c1` (stereo not shown) [Example 16, N-(3-isopropyl-5-((4-methylpiperazin-1-yl)methyl)phenyl)-4-methyl-2-(pyrimidin-5-yl)-1,2,3,4-tetrahydroisoquinoline-7-carboxamide], the IC50 (DDR1) was 35.7 nM, the IC50 (c-Kit) was greater than 10000 nM and the IC50 (DDR2; cells without unit) was 0.647 µM. For the same compound, the IC50 (Bcr-Abl [4]) was 7.2 µM.

`CCN1CCN(Cc2cc(NC(=O)c3ccc4c(c3)CN(c3cncnc3)CC4C)cc(C(F)(F)F)c2)CC1` (stereo not shown) [Example 17, N-(3-((4-ethylpiperazin-1-yl)methyl)-5-(trifluoromethyl)phenyl)-4-methyl-2-(pyrimidin-5-yl)-1,2,3,4-tetrahydroisoquinoline-7-carboxamide] showed an IC50 (DDR1) of 39.1 nM, an IC50 (c-Kit) greater than 10000 nM and an IC50 (DDR2; cells without unit) of 0.527 µM. For the same compound, the IC50 (Bcr-Abl [4]) was greater than 10 µM.

In the case of `CC1CN(c2cncnc2)Cc2cc(C(=O)Nc3cc(CN4CCOCC4)cc(C(F)(F)F)c3)ccc21` (stereo not shown) [Example 18, 4-methyl-N-(3-(morpholinomethyl)-5-(trifluoromethyl)phenyl)-2-(pyrimidin-5-yl)-1,2,3,4-tetrahydroisoquinoline-7-carboxamide], the IC50 (DDR1) is reported as 193 nM, the IC50 (c-Kit) is reported as greater than 10000 nM and the IC50 (DDR2; cells printed in μM) is reported as 4.5 µM. For the same compound, the IC50 (Bcr-Abl [4]) was greater than 10 µM.

For `CC1CN(c2cncnc2)Cc2cc(C(=O)Nc3cc(CN4CCCCC4)cc(C(F)(F)F)c3)ccc21` (stereo not shown) [Example 19, 4-methyl-N-(3-(piperidin-1-ylmethyl)-5-(trifluoromethyl)phenyl)-2-(pyrimidin-5-yl)-1,2,3,4-tetrahydroisoquinoline-7-carboxamide], the IC50 (DDR1) was 166 nM, the IC50 (c-Kit) was greater than 10000 nM and the IC50 (DDR2; cells printed in μM) was 2.2 µM. It also gave an IC50 (Bcr-Abl [4]) greater than 10 µM.

Compound `CC1CN(c2cncnc2)Cc2cc(C(=O)Nc3cc(CN4CCCC4)cc(C(F)(F)F)c3)ccc21` (stereo not shown) [Example 20, 4-methyl-2-(pyrimidin-5-yl)-N-(3-(pyrrolidin-1-ylmethyl)-5-(trifluoromethyl)phenyl)-1,2,3,4-tetrahydroisoquinoline-7-carboxamide] has an IC50 (DDR1) of 222 nM, an IC50 (c-Kit) greater than 10000 nM and an IC50 (DDR2; cells printed in μM) of 2.3 µM. For the same compound, the IC50 (Bcr-Abl [4]) was greater than 10 µM.

In the case of `CC1CN(c2cncnc2)Cc2cc(C(=O)Nc3cc(CN(C)C)cc(C(F)(F)F)c3)ccc21` (stereo not shown) [Example 21, N-(3-((dimethylamino)methyl)-5-(trifluoromethyl)phenyl)-4-methyl-2-(pyrimidin-5-yl)-1,2,3,4-tetrahydroisoquinoline-7-carboxamide], the IC50 (DDR1) is reported as 254 nM, the IC50 (c-Kit) is reported as greater than 10000 nM and the IC50 (DDR2; cells printed in μM) is reported as 6.7 µM. It also gave an IC50 (Bcr-Abl [4]) greater than 10 µM.

`CC1CN(c2cncnc2)Cc2cc(C(=O)Nc3cc(CN4CCN(C)CC4)cc(C4CCCCC4)c3)ccc21` (stereo not shown) [Example 22, N-(3-cyclohexyl-5-((4-methylpiperazin-1-yl)methyl)phenyl)-4-methyl-2-(pyrimidin-5-yl)-1,2,3,4-tetrahydroisoquinoline-7-carboxamide] showed an IC50 (DDR1) of 71.6 nM, an IC50 (c-Kit) greater than 10000 nM and an IC50 (DDR2; cells without unit) of 0.457 µM. It also gave an IC50 (Bcr-Abl [4]) greater than 10 µM.

`Cc1cn(-c2cc(NC(=O)c3ccc4c(c3)CN(c3cncnc3)CC4C)cc(C(F)(F)F)c2)cn1` (stereo not shown) [Example 26, 4-methyl-N-(3-(4-methyl-1H-imidazol-1-yl)-5-(trifluoromethyl)phenyl)-2-(pyrimidin-5-yl)-1,2,3,4-tetrahydroisoquinoline-7-carboxamide] showed an IC50 (c-Kit) greater than 10000 nM and an IC50 (Bcr-Abl [5]) of 7.2 µM.

With `CC1Cc2ccc(C(=O)Nc3cc(CN4CCN(C)CC4)cc(C(F)(F)F)c3)cc2CN1c1cncnc1` (stereo not shown) [Example 30, 3-methyl-N-(3-((4-methylpiperazin-1-yl)methyl)-5-(trifluoromethyl)phenyl)-2-(pyrimidin-5-yl)-1,2,3,4-tetrahydroisoquinoline-7-carboxamide] the IC50 (DDR1) was 544 nM, the IC50 (c-Kit) was greater than 10000 nM and the IC50 (DDR2; cells printed in μM) was 7.6 µM. For the same compound, the IC50 (Bcr-Abl [4]) was greater than 10 µM.

For `CC1CN(c2cncnc2)Cc2cc(C(=O)Nc3cc(CN4CCN(C5CCCCC5)CC4)cc(C(F)(F)F)c3)ccc21` (stereo not shown) [Example 33, N-(3-((4-cyclohexylpiperazin-1-yl)methyl)-5-(trifluoromethyl)phenyl)-4-methyl-2-(pyrimidin-5-yl)-1,2,3,4-tetrahydroisoquinoline-7-carboxamide], the IC50 (DDR1) was 79.9 nM, the IC50 (c-Kit) was greater than 10000 nM and the IC50 (DDR2; cells without unit) was 0.945 µM. For the same compound, the IC50 (Bcr-Abl [4]) was greater than 10 µM.

With `CC1CN(c2cncnc2)Cc2cc(C(=O)Nc3cc(CN4CCSCC4)cc(C(F)(F)F)c3)ccc21` (stereo not shown) [Example 35, 4-methyl-2-(pyrimidin-5-yl)-N-(3-(thiomorpholinomethyl)-5-(trifluoromethyl)phenyl)-1,2,3,4-tetrahydroisoquinoline-7-carboxamide] the IC50 (DDR1) was 209 nM, the IC50 (c-Kit) was greater than 10000 nM and the IC50 (DDR2; cells printed in μM) was 3.7 µM. For the same compound, the IC50 (Bcr-Abl [4]) was greater than 10 µM.

`Nc1ccn([C@@H]2O[C@H](CO)[C@@H](O)C2(F)F)c(=O)n1` [Gemcitabine, gemcitabine] gave an IC50 (PANC-1 cells; PANC-1, PANC-1, collagen coating, single agent, read-out: Gemcitabine (nM) Avg IC50s Collagen) of 2000 nM, an IC50 (PANC-1 cells; PANC-1, PANC-1, plastic coating, single agent, read-out: Gemcitabine (nM) Avg IC50s Plastic) greater than 2000 nM and an IC50 (PANC-1 cells; PANC-1, read-out: 500 nM 7rh + Gem Avg IC50s Plastic, PANC-1, plastic, fixed 500 nM 7rh with gemcitabine titration) of no more than 2 nM. For the same compound, the IC50 (AsPC-1 cells; ASPC1, AsPC-1, collagen coating, single agent, read-out: Gemcitabine (nM) Avg IC50s Collagen) was 2000 nM, the IC50 (AsPC-1 cells; ASPC1, AsPC-1, plastic coating, single agent, read-out: Gemcitabine (nM) Avg IC50s Plastic) was greater than 2000 nM and the IC50 (AsPC-1 cells; ASPC1, read-out: 500 nM 7rh + Gem Avg IC50s Plastic, AsPC-1, plastic, fixed 500 nM 7rh with gemcitabine titration) was no more than 2 nM.
